# Reference: patent publication US9145436B2 (priority 2010, dated 2015)
# What was measured:
# [1] = tested on: HepG2; assay: Cytotoxicity of the substances (TC50), HepG2; type: cell-based; set-up: unit not given beside the values; settings: HepG2 cells
# [2] = tested on: plasma TNFalpha; assay: Liver inflammation induced by LPS, plasma TNFalpha; type: in vivo, Lewis rats; settings: 10 or 50 mg/kg; LPS 4 mg/kg i.p.; relative to vehicle treated controls
# Experimental: FIG. 12. Plasma TNFa production in Lewis rats in which liver damage is induced via injection of LPS (4 mg/kg), data are the mean of N=8 and are plotted with the 95% confidence interval.
# Application of high doses of LPS, e.g. 4 mg/kg i.p. results in the induction of liver inflammation and necrosis. This is reflected in signs such as elevated plasma TNFalpha levels. […] Data are recorded in FIG. 12.
# [3] = target: T1, hERG (Homo sapiens, UniProt Q12809); assay: hERG inhibition in Chinese hamster ovary cells expressing the hERG c-DNA (K+ currents); type: cell-based; settings: CHO cells expressing hERG
# T1 construct: expressed in transfected cells; host or cells: Chinese hamster ovary (CHO) cells
# T1 sequence (Q12809 whole entry): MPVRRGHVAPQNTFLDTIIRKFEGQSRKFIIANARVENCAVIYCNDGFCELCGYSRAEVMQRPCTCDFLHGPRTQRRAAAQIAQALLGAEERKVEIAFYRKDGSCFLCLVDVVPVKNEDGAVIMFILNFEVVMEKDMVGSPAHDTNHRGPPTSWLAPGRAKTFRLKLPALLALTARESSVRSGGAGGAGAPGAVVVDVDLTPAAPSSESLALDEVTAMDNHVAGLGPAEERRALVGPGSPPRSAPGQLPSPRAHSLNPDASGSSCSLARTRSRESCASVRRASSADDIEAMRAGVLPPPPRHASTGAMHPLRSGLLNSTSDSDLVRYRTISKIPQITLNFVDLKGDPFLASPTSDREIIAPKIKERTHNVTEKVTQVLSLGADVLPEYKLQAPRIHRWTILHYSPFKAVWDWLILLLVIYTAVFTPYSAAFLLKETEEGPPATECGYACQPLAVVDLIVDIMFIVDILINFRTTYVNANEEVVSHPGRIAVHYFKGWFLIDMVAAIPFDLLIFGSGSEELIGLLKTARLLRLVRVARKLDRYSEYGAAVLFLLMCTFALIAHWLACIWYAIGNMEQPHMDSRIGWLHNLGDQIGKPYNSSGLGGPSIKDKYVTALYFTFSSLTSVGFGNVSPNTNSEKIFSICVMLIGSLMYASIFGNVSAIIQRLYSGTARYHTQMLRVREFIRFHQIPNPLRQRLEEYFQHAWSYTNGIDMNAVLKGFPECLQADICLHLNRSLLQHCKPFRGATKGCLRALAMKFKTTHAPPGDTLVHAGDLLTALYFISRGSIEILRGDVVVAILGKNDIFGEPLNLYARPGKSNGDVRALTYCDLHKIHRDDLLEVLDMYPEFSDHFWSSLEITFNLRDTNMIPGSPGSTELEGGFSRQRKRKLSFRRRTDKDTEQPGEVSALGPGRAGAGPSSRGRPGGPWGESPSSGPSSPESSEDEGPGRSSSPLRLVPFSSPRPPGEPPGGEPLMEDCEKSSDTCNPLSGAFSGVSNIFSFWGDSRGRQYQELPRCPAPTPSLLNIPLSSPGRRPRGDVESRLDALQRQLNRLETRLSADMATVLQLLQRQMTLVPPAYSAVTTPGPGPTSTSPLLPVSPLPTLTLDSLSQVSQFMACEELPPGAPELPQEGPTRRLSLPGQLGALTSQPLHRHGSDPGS
# Experimental: A major drawback of macrocycles is the inhibition of cardiac ion channels and specifically the channel encoded by the hERG gene inhibition of which is associated with “long Q-T” syndrome in some patients. To determine risk of hERG inhibition, Compounds 2 and 3 were incubated with Chinese hamster ovary cells expressing the hERG c-DNA resulting in detectable K+ currents associated with hERG at the cell surface.
# [4] = tested on: Jurkat lymphocytes; assay: In vitro toxicity: growth inhibition of Jurkat lymphocytes, Alamar Blue; type: cell-based; settings: DMEM medium
# Experimental: (§1) Various analogs were compared in vitro to determine key properties. Antibacterial effect was determined in representative Gram negative (E. coli) and positive (S. aureus) organisms using the method of example 16. Effects on lung inflammation were compared using the method of example 32. BALF (Bronchoalveolar Lavage Fluid) TNFa levels are determined by ELISA. In vitro toxicity is determined by growth inhibition of Jurkat lymphocytes in DMEM medium as determined using Alamar Blue reaction. Effects on cytokine production are determined in J774 cells stimulated with either LPS (0.1 μg/mL) or medium from J774 cells stimulated for 24 h with 0.2 μg/mL LPS. Cytokines are determined by ELISA and expressed as % DMSO control at 50 μM inhibitor concentration.
# [5] = Ames test (mutagenicity); type: cell-based; settings: up to 800 μg/plate (approx. 70 μM); absence and presence of metabolically active liver extract
# Experimental: The Ames test is well known in the art. To determine the mutagenic potential of compound 2, it was conducted up to a concentration of 800 μg/plate (approx. 70 μM, considering 20 ml medium in a petri dish).
# [6] = tested on: GM_CSF production in J774 cells; assay: Cytokine production in stimulated J774 cells, GM-CSF (ELISA); type: cell-based; settings: Cond. (medium from J774 cells stimulated 24 h with 0.2 μg/mL LPS)
# Experimental: as §1
# [7] = Exposure by LCMS analysis of organs; type: in vivo, bALBc mice
# Experimental: (§2) To determine the potential for toxic effects of compound 2 in higher animals, compound 2 was administered to bALBc mice orally as a suspension up to a dose of 400 μmole/kg/day for 7 days.
# Exposure to the compound was confirmed using LCMS analysis of organs. […] A mild increase in Compound 2 concentration relative the average bodily dose in liver and spleen is clear after 2 h. In kidney the increase appears later, after 24 h.
# [8] = tested on: DSS induced colitis; assay: Dextransulfate (DSS) model of inflammatory bowel disease; type: in vivo, female C57BLK6 mice; settings: DSS 2.5% W/V in drinking water; relative to known compounds such as sulfasalazine
# Text: Dextransulfate (DSS) is used to induce an inflammatory state in the gut of mice by providing it in the drinking water. In our model, DSS (ICN) was used at 2.5% W/V in drinking water for female C57BLK6 mice (ca. 20 g). Weight was monitored daily as were diarrhea, overall condition and occult blood. Depending on severity, animals were recovered at 5, 7 or 12 days after onset of DSS treatment, and colon and intestine material recovered for histological examination.
# [9] = tested on: E. coli; assay: Antibiotic dilution assay, E. coli; type: cell-based; settings: Escherichia coli; liquid medium, OD600; read-out: Bacterial IC 50 (μM) E. Coli
# Experimental: (§3) The antibiotic activity of the compounds was determined via antibiotic dilution assay. After filling 100 μl growth medium into all the wells of a 96 well plate, the compounds were diluted from 1 mM to 0.010 μM. The growth control wells contained growth medium instead of inhibitory agents. The inhibitory control contained Compound 3 (200 μM). Suspensions of E. coli and B. pumilus in growth medium with an approximate OD600 of 0.03-0.04 were added to the diluted compounds, incubated for 6-8 hours on the shaker at 750 rpm and 37° C. until the growth control had reached an OD600 of about 0.6-0.8. The OD600 was then determined on a standard plate reader.
# as §1
# [10] = tested on: Jurkat; assay: Cytotoxicity of the substances (TC50), Jurkat; type: cell-based; settings: Jurkat cells
# [11] = tested on: BALF TNFa; assay: Airway inflammation by inhaled LPS, BALF TNFa by ELISA; type: in vivo, DBA or Swiss female mice; settings: 20 μmol/kg i.n., 30 minutes prior to LPS challenge
# Experimental: as §1
# Airway inflammation is induced by inhalation of solutions containing bacterial LPS. 10 μg per mouse is provided intranasally in phosphate buffered saline. 90 minutes after challenge, bronchioalveolar lavage fluid is recovered from the lung using PBS (0.5 mL) injected into the lung via the trachea and frozen prior to analysis for cytokines by ELISA. TNFa is the primary cytokine measured. Compound 2 and other test substances are dissolved in 0.02% citric acid in water, and the pH of the resulting solution is set to 6.2. Compounds are administered 30 minutes prior to challenge either as 25 μL solutions for intranasal use, or as 125 μL volumes for p.o. application in 25 g DBA or Swiss female mice. The results of said interventions include reduction of lung and/or plasma cytokines. Example data are recorded in FIG. 13.
# [12] = Toxicity on oral administration for 7 days; type: in vivo; settings: orally as a suspension up to 400 μmole/kg/day for 7 days
# Experimental: as §2
# [13] = tested on: TNFa production in J774 cells; assay: Cytokine production in stimulated J774 cells, TNFa (ELISA); type: cell-based; settings: Normal (LPS 0.1 μg/mL)
# Experimental: as §1
# [14] = tested on: collagen arthritis model; assay: Collagen arthritis model; type: in vivo, Male DBA mice; settings: administered prior to or at the start of arthritis; 2 to 40 μmol kg−1; vs vehicle
# Experimental: The data are obtained using the collagen arthritis model. Male DBA mice (18-22 g) are subcutaneously injected at the tail base with bovine type II collagen (100 μL) on day 1 and day 21. Onset of arthritis occurs over the next 5 days. Treatments are typically selected from A) a mixture of a Compound such as Compound 2 (between 2 to 40 μmol kg^−1) and the vehicle which is typically 1% citratic acid in water or similar. The effect of treatment on arthritis is monitored daily by assessing body weight, paw thickness and qualitative evidence of arthritis (scored from 0 to 3, 0=no evidence of arthritis or inflammation, 3=frank swelling of the paw). At the end of qualitative assessment, animals are sacrificed for toxicological, histological and pathological analysis.
# [15] = tested on: IL-10 production in J774 cells; assay: Cytokine production in stimulated J774 cells, IL-10 (ELISA); type: cell-based; settings: Normal (LPS 0.1 μg/mL)
# Experimental: as §1
# [16] = tested on: IL-12 production in J774 cells; assay: Cytokine production in stimulated J774 cells, IL-12 (ELISA); type: cell-based; settings: Normal (LPS 0.1 μg/mL)
# Experimental: as §1
# [17] = tested on: HeLa; assay: Cytotoxicity of the substances (TC50), HeLa; type: cell-based; settings: HeLa cells
# [18] = tested on: S. aureus; assay: Antibiotic dilution assay, S. aureus; type: cell-based; settings: Staphylococcus aureus; liquid medium, OD600; read-out: Bacterial IC 50 (μM) S. Aureus
# Experimental: as §3, §1
smiles,measurement,setting,value
CC[C@H]1OC(=O)[C@H](C)C2(O)O[C@](C)(C[C@@H](C)CN(C)[C@H](C)[C@@H](O)[C@]1(C)O)[C@H](O[C@@H]1O[C@H](C)CC(N(C)C)[C@H]1O)[C@H]2C (some centres unmarked) [Compound 2],TC50 HepG2,[1],90
same,plasma TNF levels,[2],reduce plasma TNF levels relative to vehicle treated controls
same,"hERG inhibition, potency relative to Compound 3",[3],less potent inhibitor than the commercially available Compound 3
same,Jurkat Cell toxicity Normal growth limit,[4],100 µM
same,mutagenic activity (Ames test),[5],no mutagenic activity
same,"Cytokine production in J774 cells as % DMSO control, GM_CSF Cond. 50 μM",[6],160 % DMSO control
same,accumulation in organs,"[7]; kidney, liver and spleen, LCMS, oral dosing","slightly accumulated in kidney, liver and spleen"
same,fraction of the initial value detectable in organs,[7]; within 24 h,more than 50%
same,diarrhea severity,[8],reductions in diarrhea severity
same,mortality,[8],reduced mortality
same,weight loss,[8],protection against weight loss
same,IC50,[9],1000 µM
same,TC50 Jurkat,[10],40
same,BALF TNFa (% Vehicle) 20 μmol/kg i.n.,[11],75 % Vehicle
same,gross toxic effect / weight gain,[12],continued to gain weight during this period suggesting no gross toxic effect
same,"Cytokine production in J774 cells as % DMSO control, TNFa Normal 50 μM",[13],68 % DMSO control
same,arthritis score,[14],reductions in score
same,loss in body weight associated with arthritis,[14],reduces loss in body weight
same,paw swelling,[14],"reductions in score, paw swelling"
same,"Cytokine production in J774 cells as % DMSO control, IL-10 Normal 50 μM",[15],115 % DMSO control
same,"Cytokine production in J774 cells as % DMSO control, IL-12 Normal 50 μM",[16],42 % DMSO control
same,TC50 HeLa,[17],>100
same,IC50,[18],1340 µM
